Columns and labels:
Assay in all cases: combination Emax (second highest fraction inhibited in the dose matrix, 72 h); higher = more inhibition; extreme values may be limits of the assay
[1] = test system: GDM-1 (Acute Myeloid Leukemia)
Summary of the method: (§1)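 Cell lines in DMEM/F12 or RPMI with 10% FBS were plated in 1536-well plates, held 24 hours at 37°C, 5% CO2, then given two-drug dose matrices for 72 hours (DMSO typically 0.2%). Viability was read by CellTiter-Glo 2.0 luminescence and scaled as inhibition from 0 (vehicle wells) to 1 (blank wells). Combination Emax is the second-highest inhibition in the matrix; Bliss excess is observed combination effect minus expected EA + EB − EA·EB, EA and EB being single-agent effects.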

[2] = test system: ETK-1 (Biliary Tract Carcinoma)
Summary of the method: as §1

MSTO-211H (Mesothelioma) = test system: MSTO-211H (Mesothelioma)
Summary of the method: as §1

[3] = test system: TYK-nu (Ovarian Carcinoma)
Summary of the method: as §1

[4] = test system: NCI-H1688 (Small Cell Lung Carcinoma)
Summary of the method: as §1

H4 (Low Grade Glioma) = test system: H4 (Low Grade Glioma)
Summary of the method: as §1

A172 (Glioblastoma) = test system: A172 (Glioblastoma)
Summary of the method: as §1

[5] = test system: HLE (Hepatocellular Carcinoma)
Summary of the method: as §1

[6] = test system: YT (Other Blood Carcinomas)
Summary of the method: as §1

[7] = test system: BICR78 (Oral Cavity Carcinoma)
Summary of the method: as §1

SK-MEL-1 (Melanoma) = test system: SK-MEL-1 (Melanoma)
Summary of the method: as §1

[8] = test system: KG-1 (Acute Myeloid Leukemia)
Summary of the method: as §1

[9] = test system: U-118-MG (Low Grade Glioma)
Summary of the method: as §1

HuO9 (Osteosarcoma) = test system: HuO9 (Osteosarcoma)
Summary of the method: as §1

MCF7 (Breast Carcinoma) = test system: MCF7 (Breast Carcinoma)
Summary of the method: as §1

[10] = test system: D-283MED (Other Solid Carcinomas)
Summary of the method: as §1

[11] = test system: EKVX (Non-Small Cell Lung Carcinoma)
Summary of the method: as §1

[12] = test system: SNU-61 (Colorectal Carcinoma)
Summary of the method: as §1

[13] = test system: CAL-39 (Other Solid Carcinomas)
Summary of the method: as §1

[14] = test system: SLVL (B-Cell Non-Hodgkin's Lymphoma)
Summary of the method: as §1

Row | Structure (SMILES) | combination Emax [1] | combination Emax [2] | combination Emax (MSTO-211H (Mesothelioma)) | combination Emax [3] | combination Emax [4] | combination Emax (H4 (Low Grade Glioma)) | combination Emax (A172 (Glioblastoma)) | combination Emax [5] | combination Emax [6] | combination Emax [7] | combination Emax (SK-MEL-1 (Melanoma)) | combination Emax [8] | combination Emax [9] | combination Emax (HuO9 (Osteosarcoma)) | combination Emax (MCF7 (Breast Carcinoma)) | combination Emax [10] | combination Emax [11] | combination Emax [12] | combination Emax [13] | combination Emax [14]
1 | Cc1c2c(nn1C)CSCc1cc(n(C)n1)CSc1cc(c3ccccc3c1)OCCCc1c(C(=O)O)n(C)c3c-2c(Cl)ccc13 [AZD5991] + C[C@@H]1COCCN1C2=NC(=NC(=C2)C3(CC3)[S@](=N)(=O)C)C4=C5C=CNC5=NC=C4 [AZD6738] (first compound max 1 µM, 7x7, partner max 10 µM) | 0.91 | 0.658 | 0.688 | 0.74 | 0.47 | 0.813 | 0.679 | 0.802 | 1 | 0.612 | 0.226 | 1 | 0.506 | 1 | 0.776 | 0.992 | 0.29 | 0.349 | 0.645 | 0.873
2 | CN(CCO)CC[C@H](CSc1ccccc1)Nc1ccc(S(=O)(=O)NC(=O)c2ccc(N3CCC([C@@H](O)c4ccccc4-c4ccc(Cl)cc4)CC3)cc2)cc1S(=O)(=O)C(F)(F)F [AZD4320] + Cn1cnc2c(F)c(Nc3ccc(Br)cc3Cl)c(C(=O)NOCCO)cc21 [Selumetinib] (first compound max 1 µM, 7x7, partner max 3 µM) | 1 | 0.3 | 0.531 | 0.619 | 0.468 | 0.418 | 0.212 | 0.504 | 0.737 | 0.508 | 0.976 | 0.971 | 0.842 | 0.979 | 0.402 | 0.918 | 0.314 | 0.512 | 0.604 | 0.966
3 | CCN(CCO)CCCOc1ccc2c(Nc3cc(CC(=O)Nc4cccc(F)c4)[nH]n3)ncnc2c1 [AZD2811] + O=C(c1cc(Cc2n[nH]c(=O)c3ccccc23)ccc1F)N1CCN(C(=O)C2CC2)CC1 [Olaparib] (first compound max 1 µM, 7x7, partner max 10 µM) | 0.818 | 0.216 | 0.35 | 0.359 | 0.196 | 0.558 | 0.534 | 0.409 | 0.309 | 0.285 | 0.289 | 0.37 | 0.377 | 0.293 | 0.224 | 0.817 | 0.159 | 0.171 | 0.324 | 0.723
4 | Cc1c2c(nn1C)CSCc1cc(n(C)n1)CSc1cc(c3ccccc3c1)OCCCc1c(C(=O)O)n(C)c3c-2c(Cl)ccc13 [AZD5991] + C1CN(CCC1(C(=O)N[C@@H](CCO)C2=CC=C(C=C2)Cl)N)C3=NC=NC4=C3C=CN4 [Capivasertib] (first compound max 1 µM, 7x7, partner max 3 µM) | 0.454 | 0.254 | 0.245 | 0.36 | 0.322 | 0.495 | 0.234 | 0.279 | 1 | 0.266 | 0.118 | 1 | 0.289 | 1 | 0.687 | 0.367 | 0.301 | 0.117 | 0.384 | 0.567
5 | CC1(C)CCC(CN2CCN(c3ccc(C(=O)NS(=O)(=O)c4ccc(NCC5CCOCC5)c([N+](=O)[O-])c4)c(Oc4cnc5[nH]ccc5c4)c3)CC2)=C(c2ccc(Cl)cc2)C1 [Venetoclax] + Cn1cnc2c(F)c(Nc3ccc(Br)cc3Cl)c(C(=O)NOCCO)cc21 [Selumetinib] (first compound max 1 µM, 7x7, partner max 3 µM) | 0.735 | 0.165 | 0.172 | 0.464 | 0.121 | 0.232 | 0.206 | 0.191 | 0.429 | 0.323 | 0.872 | 0.726 | 0.181 | 0.177 | 0.104 | 0.523 | 0.343 | 0.351 | 0.535 | 0.735
6 | Cc1c2c(nn1C)CSCc1cc(n(C)n1)CSc1cc(c3ccccc3c1)OCCCc1c(C(=O)O)n(C)c3c-2c(Cl)ccc13 [AZD5991] + Cc1cc2ncnn2cc1Nc1ncc2c(n1)n(C1CCOCC1)c(=O)n2C [AZD7648] (first compound max 1 µM, 7x7, partner max 10 µM) | 0.619 | 0.294 | 0.194 | 0.412 | 0.297 | 0.378 | 0.322 | 0.515 | 1 | 0.219 | 0.303 | 1 | 0.425 | 1 | 0.665 | 0.435 | 0.303 | 0.19 | 0.58 | 0.487

— the supplement of paper PMC11061612
